Assay results: US7645881B2, “Methods for treating hepatitis C” (PTC Therapeutics, Inc., priority 2004, dated 2010)

What was measured:
[1] = test system: HCV replicon; assay: microbe, parasite or virus in culture; type: cell-based; conditions: Hepatitis C virus, 48 h, read-out: Replicon IC50s μM

## Nc1c(C(=O)N2CCOCC2)sc2nc3c(cc12)CCCCC3 [Compound 1]
[1]
  IC50: > 2 µM
other
  melting point: 203 to 204 °C

## CC(C)(C)c1cc(C(F)(F)F)c2c(N)c(C(N)=O)sc2n1 [Compound 2]
[1]
  IC50: > 2 µM

## CCc1c(C)nc2sc(C(=O)OC(C)(C)C)c(N)c2c1C [Compound 3, tert-Butyl 3-amino-5-ethyl-4,6-dimethylthieno[2,3-B]pyridine-2-carboxylate]
[1]
  IC50: 0.5 to 2 µM
other
  melting point: 135 to 136 °C

## CC1(C)Cc2c(c(N3CCOCC3)nc3sc(C(N)=O)c(N)c23)CO1 [Compound 4]
[1]
  IC50: > 2 µM

## CCc1c(C)nc2sc(-c3nnc(-c4ccccc4)o3)c(N)c2c1C [Compound 6, 5-ethyl-4,6-dimethyl-2-(5-phenyl-[1,3,4]oxadiazol-2-yl)-thieno[2,3-b]pyridin-3-yl amine]
[1]
  IC50: 0.5 to 2 µM
other
  melting point: 306 to 307 °C

## Cc1cccc(-c2nnc(-c3sc4nc(C)c(C)c(C)c4c3N)o2)c1 [Compound 7]
[1]
  IC50: 0.5 to 2 µM
other
  melting point: 268 to 270 °C

## Cc1nc2sc(-c3nnc(-c4cccc(F)c4)o3)c(N)c2c(C)c1C [Compound 8]
[1]
  IC50: 0.5 to 2 µM
other
  melting point: 300 to 302 °C

## Cc1nc2sc(-c3nnc(-c4ccc(Cl)s4)o3)c(N)c2c(C)c1C [Compound 9]
[1]
  IC50: 0.5 to 2 µM
other
  melting point: 284 to 286 °C

## Cc1nc2sc(-c3nnc(-c4ccc(F)cc4)o3)c(N)c2c(C)c1C [Compound 10]
[1]
  IC50: 0.5 to 2 µM
other
  melting point: 320 to 322 °C

## Cc1nc2sc(-c3nnc(-c4cccc(Cl)c4)o3)c(N)c2c(C)c1C [Compound 11]
[1]
  IC50: > 2 µM
other
  melting point: 302 to 303 °C

## Cc1nc2sc(-c3nnc(-c4ccc(Cl)cc4)o3)c(N)c2c(C)c1C [Compound 12]
[1]
  IC50: > 2 µM
other
  melting point: 331 to 332 °C

## Cc1ccccc1-c1nnc(-c2sc3nc(C)c(C)c(C)c3c2N)o1 [Compound 13]
[1]
  IC50: < 0.5 µM
other
  melting point: 261 to 262 °C

## Cc1nc2sc(-c3nnc(-c4ccccc4F)o3)c(N)c2c(C)c1C [Compound 14]
[1]
  IC50: < 0.5 µM
other
  melting point: 287 to 288 °C

## Cc1nc2sc(-c3nnc(-c4ccccc4Cl)o3)c(N)c2c(C)c1C [Compound 15]
[1]
  IC50: 0.5 to 2 µM
other
  melting point: 284 to 286 °C

## Cc1nc2sc(-c3nnc(-c4ccccn4)o3)c(N)c2c(C)c1C [Compound 16]
[1]
  IC50: < 0.5 µM
other
  melting point: 306 to 308 °C

## CCCCNc1cc(C)c2c(N)c(C(N)=O)sc2n1 [Compound 17]
[1]
  IC50: 0.5 to 2 µM
other
  melting point: 169 to 170 °C

## Cc1nc2sc(-c3nc(COc4ccc(Cl)c(Cl)c4)no3)c(N)c2c(C)c1C [Compound 18]
[1]
  IC50: 0.5 to 2 µM
other
  melting point: 197 to 200 °C

## Cc1nc2sc(-c3nc(-c4cccs4)no3)c(N)c2c(C)c1C [Compound 19]
[1]
  IC50: < 0.5 µM
other
  melting point: 281 to 282 °C

## COc1ccccc1-c1noc(-c2sc3nc(C)c(C)c(C)c3c2N)n1 [Compound 20]
[1]
  IC50: 0.5 to 2 µM
other
  melting point: 244 to 245 °C

## Cc1nc2sc(-c3noc(-c4ccccc4)n3)c(N)c2c(C)c1C [Compound 21]
[1]
  IC50: < 0.5 µM
other
  melting point: 248 to 250 °C

## Cc1nc2sc(-c3noc(-c4cccs4)n3)c(N)c2c(C)c1C [Compound 22]
[1]
  IC50: < 0.5 µM
other
  melting point: 260 to 265 °C

## COc1ccccc1-c1nnc(-c2sc3nc(C)c(C)c(C)c3c2N)o1 [Compound 23]
[1]
  IC50: 0.5 to 2 µM
other
  melting point: 238 to 240 °C

## Cc1nc2sc(-c3nc(-c4ccccc4)no3)c(N)c2c(C)c1C [Compound 24, 4,5,6-trimethyl-2-(3-phenyl-[1,2,4]oxadiazol-5-yl)-thieno[2,3-b]pyridin-3-ylamine]
[1]
  IC50: < 0.5 µM
other
  melting point: 276 to 278 °C

## Cc1nc2sc(-c3nc(-c4cccnc4)no3)c(N)c2c(C)c1C [Compound 25]
[1]
  IC50: 0.5 to 2 µM
other
  melting point: 278 to 280 °C

## Cc1nc2sc(-c3ncc(-c4ccccc4)o3)c(N)c2c(C)c1C [Compound 26]
[1]
  IC50: 0.5 to 2 µM
other
  melting point: 284 to 285 °C

## CCc1c(C)nc2sc(C(C)=O)c(-n3cccc3)c2c1C [Compound 27]
[1]
  IC50: > 2 µM
other
  melting point: 145 to 147 °C

## Nc1c(C(=O)Nc2ccccc2)sc2nc3c(cc12)CCCCC3 [Compound 28]
[1]
  IC50: > 2 µM

## Cc1cc(-c2cccs2)c2c(N)c(C#N)sc2n1 [Compound 30]
[1]
  IC50: > 2 µM

## CC(C)(C)OC(=O)c1sc2nc3c(c(-c4cccc(F)c4F)c2c1N)CCCCC3 [Compound 31]
[1]
  IC50: > 2 µM

## CC(C)(C)OC(=O)c1sc2nc3c(c(-c4ccco4)c2c1N)CCCC3 [Compound 32]
[1]
  IC50: > 2 µM

## CC(C)(C)OC(=O)c1sc2nc3c(c(-c4ccco4)c2c1N)CCC3 [Compound 33]
[1]
  IC50: > 2 µM

## CC(C)(C)OC(=O)c1sc2nc3c(c(-c4cccs4)c2c1N)CCCC3 [Compound 34]
[1]
  IC50: > 2 µM

## CCc1c(C)nc2sc(C(=O)OC(C)(C)C)c(-c3cccc(C#N)c3)c2c1C [Compound 36]
[1]
  IC50: > 2 µM

## CCc1c(C)nc2sc(C(=O)OC(C)(C)C)c(-c3ccc(OC)cc3)c2c1C [Compound 37, t-butyl 5-ethyl-3-(4-methoxy-phenyl)-4,6-dimethyl-thieno[2,3-b]pyridine-2-carboxylate]
[1]
  IC50: > 2 µM

## Cc1cc(CO)c2c3c(sc2n1)C(=O)NC(c1ccccc1)N3 (stereo not shown) [Compound 38, 4-hydroxymethyl-2-methyl-6-phenyl-6,7-dihydro-5H-9-thia-1,5,7-triaza-fluoren-8-one]
[1]
  IC50: > 2 µM

## CCc1c(C)nc2sc(C(=O)OC(C)(C)C)c(-c3ccc4c(c3)OCO4)c2c1C [Compound 39]
[1]
  IC50: > 2 µM
other
  melting point: 151 to 152 °C

## CCc1c(C)nc2sc(C(=O)OC(C)(C)C)c(-c3ccoc3)c2c1C [Compound 40]
[1]
  IC50: > 2 µM
other
  melting point: 111 to 111.5 °C

## CCc1c(C)nc2sc(C(=O)N3CCCCC3)c(-c3ccc(OC)cc3)c2c1C [Compound 41]
[1]
  IC50: > 2 µM

## CCc1c(C)nc2sc(C(=O)OC(C)(C)C)c(-c3ccc(Cl)cc3)c2c1C [Compound 42]
[1]
  IC50: > 2 µM
other
  melting point: 117 to 118 °C

## CCc1c(C)nc2sc(C(=O)OC(C)(C)C)c(-c3cccc(Cl)c3)c2c1C [Compound 43]
[1]
  IC50: > 2 µM
other
  melting point: 152.1 to 152.6 °C

## CCc1c(C)nc2sc(C(=O)NCc3ccccc3)c(-c3ccc(OC)cc3)c2c1C [Compound 44]
[1]
  IC50: > 2 µM

## CC(C)(C)OC(=O)c1sc2nc3c(c(-c4cccs4)c2c1N)CCCCC3 [Compound 45, tert-butyl 3-amino-4-thiophen-2-yl-6,7,8,9-tetrahydro-5H-1-thia-10-aza-cyclohepta[f]indene-2-carboxylate]
[1]
  IC50: > 2 µM
other
  melting point: 202.9 to 203.1 °C

## CCOC(=O)c1sc2nc3c(c(-c4ccco4)c2c1N)CCC3 [Compound 46]
[1]
  IC50: > 2 µM
other
  melting point: 157.6 to 157.7 °C

## CN1CCN(C(=O)c2sc3nc4c(c(-c5cccs5)c3c2N)CCCCC4)CC1 [Compound 47]
[1]
  IC50: > 2 µM
other
  melting point: 115 to 118 °C

## CC(C)(C)NC(=O)c1sc2nc3c(c(-c4cccs4)c2c1N)CCCCC3 [Compound 48]
[1]
  IC50: > 2 µM
other
  melting point: 184 to 185 °C

## CCc1c(C)nc2sc(NC(=O)C3CCCC3)c(C#N)c2c1C [Compound 49, cyclopentanecarboxylic acid (3-cyano-5-ethyl-4,6-dimethyl-thieno[2,3-b]pyridin-2-yl)amide]
[1]
  IC50: > 2 µM
other
  melting point: 228 to 230 °C

## Nc1c(C(=O)Nc2ccc(Br)cc2)sc2nc3c(c(-c4ccco4)c12)CCCCC3 [Compound 51]
[1]
  IC50: > 2 µM

## CCc1c(C)nc2sc(NC(=O)C(C)C)c(C#N)c2c1C [Compound 53]
[1]
  IC50: > 2 µM
other
  melting point: 189 to 190 °C

## CCc1c(C)nc2sc(S(C)(=O)=O)c(C#N)c2c1C [Compound 54]
[1]
  IC50: > 2 µM
other
  melting point: 219 to 220 °C

## Cc1nc2sc(C(=O)OC(C)(C)C)c(N)c2c(C)c1-c1ccccc1 [Compound 55]
[1]
  IC50: > 2 µM
other
  melting point: 212 to 213 °C

## CCc1c(C)nc2sc(C(=O)SC(C)(C)C)c(N)c2c1C [Compound 56]
[1]
  IC50: > 2 µM

## N#Cc1c(C(=O)Nc2ccccc2)sc2nc3c(c(-c4cccs4)c12)CCCCC3 [Compound 57]
[1]
  IC50: > 2 µM
other
  melting point: 215.3 to 215.7 °C

## N#Cc1c(NC(=O)c2cccc(C(F)(F)F)c2)sc2nc3c(c(-c4cccs4)c12)CCCCC3 [Compound 58, N-(3-cyano-4-thiophen-2-yl-6,7,8,9-tetrahydro-5H-1-thia-10-aza-cyclohepta[f]inden-2-yl)-3-trifluoromethyl-benzamide]
[1]
  IC50: > 2 µM
other
  melting point: 226.9 to 227.1 °C

## N#Cc1c(Br)sc2nc3c(c(-c4cccs4)c12)CCCCC3 [Compound 60]
[1]
  IC50: > 2 µM
other
  melting point: 196.4 to 196.7 °C

## N#Cc1cccc(-c2sc3nc4c(c(-c5cccs5)c3c2C#N)CCCCC4)c1 [Compound 61]
[1]
  IC50: > 2 µM
other
  melting point: 159 to 162 °C

## N#Cc1c(-c2ccc3c(c2)OCO3)sc2nc3c(c(-c4cccs4)c12)CCCCC3 [Compound 62]
[1]
  IC50: > 2 µM
other
  melting point: 210 to 211 °C

## COc1ccc(-c2sc3nc4c(c(-c5cccs5)c3c2C#N)CCCCC4)cc1 [Compound 63, 2-(4-methoxyphenyl)-4-thiophen-2-yl-6,7,8,9-tetrahydro-5H-1-thia-10-aza-cyclohepta[f]indene-3-carbonitrile]
[1]
  IC50: > 2 µM
other
  melting point: 179.2 to 179.6 °C

## COc1ccc(Nc2sc3nc4c(c(-c5cccs5)c3c2C#N)CCCCC4)cc1 [Compound 64]
[1]
  IC50: > 2 µM

## Cc1nc2sc(C(=O)OC(C)(C)C)c(N)c2c(C)c1OCCN1CCCN(C)CC1 [Compound 68]
[1]
  IC50: 0.5 to 2 µM

## Cc1nc2sc(C(=O)OC(C)(C)C)c(N)c2c(C)c1OCCN1CCN(CCCN(C)C)CC1 [Compound 69]
[1]
  IC50: 0.5 to 2 µM

## Cc1nc2sc(C(=O)OC(C)(C)C)c(N)c2c(C)c1OCCN1CCCCC1 [Compound 70]
[1]
  IC50: 0.5 to 2 µM

## Cc1nc2sc(C(=O)OC(C)(C)C)c(N)c2c(C)c1OCCN(C)C [Compound 72]
[1]
  IC50: > 2 µM

## Cc1nc2sc(C(=O)OC(C)(C)C)c(N)c2c(C)c1OCCN(C)CCN(C)C [Compound 73]
[1]
  IC50: 0.5 to 2 µM

## CCN1CCN(CCOc2c(C)nc3sc(C(=O)OC(C)(C)C)c(N)c3c2C)CC1 [Compound 74]
[1]
  IC50: > 2 µM
